One test deals with T1, TNKS2 (tankyrase 2) (Homo sapiens, UniProt Q9H2K2).
T1 sequence (Q9H2K2 1-1166): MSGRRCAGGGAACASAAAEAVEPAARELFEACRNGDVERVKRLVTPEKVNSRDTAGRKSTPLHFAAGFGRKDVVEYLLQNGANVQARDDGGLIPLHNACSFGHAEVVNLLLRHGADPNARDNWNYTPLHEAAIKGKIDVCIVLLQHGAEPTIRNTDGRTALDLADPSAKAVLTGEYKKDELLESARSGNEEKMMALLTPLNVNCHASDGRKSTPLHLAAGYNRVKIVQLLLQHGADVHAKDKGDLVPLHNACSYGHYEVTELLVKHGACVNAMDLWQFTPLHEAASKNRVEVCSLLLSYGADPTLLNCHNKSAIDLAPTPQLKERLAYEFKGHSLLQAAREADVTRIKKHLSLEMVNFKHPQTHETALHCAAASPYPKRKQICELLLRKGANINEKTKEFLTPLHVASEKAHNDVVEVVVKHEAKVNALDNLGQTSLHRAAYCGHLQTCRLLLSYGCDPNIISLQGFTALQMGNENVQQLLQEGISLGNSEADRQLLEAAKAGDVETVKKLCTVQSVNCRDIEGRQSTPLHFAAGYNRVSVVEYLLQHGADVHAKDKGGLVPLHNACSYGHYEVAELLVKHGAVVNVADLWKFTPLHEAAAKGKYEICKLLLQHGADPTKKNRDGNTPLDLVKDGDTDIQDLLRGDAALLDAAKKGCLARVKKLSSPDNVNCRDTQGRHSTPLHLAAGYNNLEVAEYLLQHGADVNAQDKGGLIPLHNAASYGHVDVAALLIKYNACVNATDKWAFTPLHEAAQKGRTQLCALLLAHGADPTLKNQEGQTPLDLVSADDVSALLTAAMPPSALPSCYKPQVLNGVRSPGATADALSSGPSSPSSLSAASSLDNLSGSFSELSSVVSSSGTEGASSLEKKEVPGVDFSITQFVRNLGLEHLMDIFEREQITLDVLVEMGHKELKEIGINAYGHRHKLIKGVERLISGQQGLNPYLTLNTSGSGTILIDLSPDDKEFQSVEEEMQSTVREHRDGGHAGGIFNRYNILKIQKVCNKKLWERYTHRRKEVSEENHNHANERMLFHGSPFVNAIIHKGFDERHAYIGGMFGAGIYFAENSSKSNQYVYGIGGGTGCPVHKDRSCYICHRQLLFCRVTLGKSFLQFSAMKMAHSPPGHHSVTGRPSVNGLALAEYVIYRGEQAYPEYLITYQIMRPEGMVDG
The test can be described thus: cell-free colorimetric TNKS2 activity assay (BPS Bioscience). The format is biochemical. The source says: cell-free colorimetric TNKS2 activity assay (BPS Bioscience) on TNKS2 (tankyrase 2) | IC50 (μM) of TI-12403 against TNKS1 and TNKS2.

In the next test the target is T2, TNKS1 (tankyrase) (Homo sapiens, UniProt O95271).
T2 construct: gene TNKS
The test can be described thus: cell-free colorimetric TNKS1 activity assay (BPS Bioscience). The format is biochemical. The source says: cell-free colorimetric TNKS1 activity assay (BPS Bioscience) on TNKS1 (tankyrase) | IC50 (μM) of TI-12403 against TNKS1 and TNKS2.

Structures are written as SMILES.

T2 sequence (O95271 whole entry): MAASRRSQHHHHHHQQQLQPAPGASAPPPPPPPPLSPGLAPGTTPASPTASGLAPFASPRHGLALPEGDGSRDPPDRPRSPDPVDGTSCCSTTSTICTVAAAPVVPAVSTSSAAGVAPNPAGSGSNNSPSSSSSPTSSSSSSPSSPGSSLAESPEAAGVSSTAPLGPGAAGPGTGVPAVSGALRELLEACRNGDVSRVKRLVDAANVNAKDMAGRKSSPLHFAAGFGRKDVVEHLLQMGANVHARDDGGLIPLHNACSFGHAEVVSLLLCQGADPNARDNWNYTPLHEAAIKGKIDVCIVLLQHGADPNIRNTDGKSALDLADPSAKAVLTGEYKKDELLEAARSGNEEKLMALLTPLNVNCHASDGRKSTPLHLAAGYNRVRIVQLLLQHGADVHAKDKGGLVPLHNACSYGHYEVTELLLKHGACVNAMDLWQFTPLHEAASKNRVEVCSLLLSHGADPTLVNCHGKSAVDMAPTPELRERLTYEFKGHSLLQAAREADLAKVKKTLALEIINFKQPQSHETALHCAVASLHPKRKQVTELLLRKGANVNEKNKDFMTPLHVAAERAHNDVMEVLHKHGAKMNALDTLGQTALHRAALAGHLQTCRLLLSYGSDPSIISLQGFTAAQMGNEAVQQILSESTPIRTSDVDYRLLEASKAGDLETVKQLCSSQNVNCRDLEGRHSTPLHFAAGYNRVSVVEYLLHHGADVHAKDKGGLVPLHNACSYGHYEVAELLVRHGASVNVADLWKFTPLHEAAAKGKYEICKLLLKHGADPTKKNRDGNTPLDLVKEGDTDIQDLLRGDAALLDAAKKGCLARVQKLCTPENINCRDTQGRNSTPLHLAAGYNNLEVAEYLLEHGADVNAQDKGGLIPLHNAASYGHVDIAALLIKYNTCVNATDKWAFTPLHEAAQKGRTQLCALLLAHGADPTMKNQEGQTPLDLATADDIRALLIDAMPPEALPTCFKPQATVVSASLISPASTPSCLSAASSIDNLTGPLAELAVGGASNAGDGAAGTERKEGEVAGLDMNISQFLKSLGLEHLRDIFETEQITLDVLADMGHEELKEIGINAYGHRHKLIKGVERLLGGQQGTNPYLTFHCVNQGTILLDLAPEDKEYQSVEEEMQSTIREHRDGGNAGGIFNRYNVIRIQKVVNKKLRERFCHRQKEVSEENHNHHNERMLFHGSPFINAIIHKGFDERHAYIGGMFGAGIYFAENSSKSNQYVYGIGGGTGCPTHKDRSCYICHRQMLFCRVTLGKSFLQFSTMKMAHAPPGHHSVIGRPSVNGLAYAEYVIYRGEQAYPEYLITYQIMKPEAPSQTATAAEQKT

Broadly, the IC50 is the concentration that gives 50% inhibition. Consider `N#Cc1ccccc1N1CCC(C(=O)Nc2nnc3ccccn23)CC1` [TI-12403, N-([1,2,4]triazolo[4,3-a]pyridin-3-yl)-1-(2-cyanophenyl)piperidine-4-carboxamide], for which the concentration for half-maximal inhibition (IC50) worked out at 60 nM against TNKS2 (tankyrase 2) and 29 nM against TNKS1 (tankyrase).

(Values after paper PMC8303674, “Discovery of a Novel Triazolopyridine Derivative as a Tankyrase Inhibitor” (International Journal of Molecular Sciences, 2021).)
